Test results: ChEMBL document CHEMBL1151757, “Synthesis, radiosynthesis, and biological evaluation of fluorine-18-labeled 2beta-carbo(fluoroalkoxy)-3beta-(3'-((Z)-2-haloethenyl)phenyl)nortropanes: candidate radioligands for in vivo imaging of the serotonin transporter with positron emission tomography” (J Med Chem, 2008)

Assays:
[1] = test system: Medulla; experiment: Drug uptake in anesthetized cynomolgus monkey brain medulla after 125 mins postinjection; assay type: ADME, organism-based, Macaca fascicularis; conditions: in vivo
[2] = test system: Thalamus; experiment: Drug uptake in anesthetized cynomolgus monkey brain thalamus after 235 mins postinjection; assay type: ADME, organism-based, Macaca fascicularis; set-up: unit not given here; conditions: in vivo
[3] = Drug uptake in anesthetized cynomolgus monkey brain occipital lobe after 225 mins postinjection; assay type: ADME, organism-based, Macaca fascicularis; conditions: in vivo, 3.75 h
[4] = Drug uptake in anesthetized cynomolgus monkey brain cerebellum after 27.5 mins postinjection; assay type: ADME, organism-based, Macaca fascicularis; conditions: in vivo
[5] = test system: Thalamus; experiment: Drug uptake in anesthetized cynomolgus monkey brain thalamus after 125 mins postinjection; assay type: ADME, organism-based, Macaca fascicularis; set-up: unit not given here; conditions: in vivo
[6] = test system: Pons; experiment: Drug uptake in anesthetized cynomolgus monkey brain pons after 135 mins postinjection; assay type: ADME, organism-based, Macaca fascicularis; conditions: in vivo, 2.25 h
[7] = Ratio of drug uptake in putamen to cerebellum in anesthetized cynomolgus monkey after 6.5 mins postinjection; assay type: ADME, organism-based, Macaca fascicularis; conditions: in vivo
[8] = test system: Caudate; experiment: Drug uptake in anesthetized cynomolgus monkey brain caudate after 27.5 mins postinjection; assay type: ADME, organism-based, Macaca fascicularis, Caudate nucleus; conditions: in vivo
[9] = test system: Midbrain; experiment: Drug uptake in anesthetized cynomolgus monkey brain midbrain after 95 mins postinjection; assay type: ADME, organism-based, Macaca fascicularis; set-up: unit not given here; conditions: in vivo
[10] = Ratio of drug uptake in thalamus to cerebellum in anesthetized cynomolgus monkey after 9.5 mins postinjection; assay type: ADME, organism-based, Macaca fascicularis; conditions: in vivo
[11] = test system: Putamen; experiment: Drug uptake in anesthetized cynomolgus monkey brain putamen after 55 mins postinjection; assay type: ADME, organism-based, Macaca fascicularis; set-up: unit not given here; conditions: in vivo
[12] = test system: Midbrain; experiment: Drug uptake in anesthetized cynomolgus monkey brain midbrain after 105 mins postinjection; assay type: ADME, organism-based, Macaca fascicularis; set-up: unit not given here; conditions: in vivo, 1.75 h
[13] = Drug uptake in anesthetized cynomolgus monkey brain cerebellum after 135 mins postinjection; assay type: ADME, organism-based, Macaca fascicularis; conditions: in vivo, 2.25 h
[14] = Ratio of drug uptake in frontal lobe to cerebellum in anesthetized cynomolgus monkey after 235 mins postinjection; assay type: ADME, organism-based, Macaca fascicularis; conditions: in vivo
[15] = test system: Pons; experiment: Drug uptake in anesthetized cynomolgus monkey brain pons after 225 mins postinjection; assay type: ADME, organism-based, Macaca fascicularis; conditions: in vivo, 3.75 h
[16] = test system: Medulla; experiment: Drug uptake in anesthetized cynomolgus monkey brain medulla after 55 mins postinjection; assay type: ADME, organism-based, Macaca fascicularis; conditions: in vivo
[17] = test system: Putamen; experiment: Drug uptake in anesthetized cynomolgus monkey brain putamen after 75 mins postinjection; assay type: ADME, organism-based, Macaca fascicularis; set-up: unit not given here; conditions: in vivo, 1.25 h
[18] = test system: Pons; experiment: Drug uptake in anesthetized cynomolgus monkey brain pons after 55 mins postinjection; assay type: ADME, organism-based, Macaca fascicularis; conditions: in vivo
[19] = test system: Thalamus; experiment: Drug uptake in anesthetized cynomolgus monkey brain thalamus after 2.5 mins postinjection; assay type: ADME, organism-based, Macaca fascicularis; set-up: unit not given here; conditions: in vivo
[20] = test system: Medulla; experiment: Drug uptake in anesthetized cynomolgus monkey brain medulla after 65 mins postinjection; assay type: ADME, organism-based, Macaca fascicularis; conditions: in vivo
[21] = Drug uptake in anesthetized cynomolgus monkey brain cerebellum after 85 mins postinjection; assay type: ADME, organism-based, Macaca fascicularis; conditions: in vivo
[22] = test system: Thalamus; experiment: Drug uptake in anesthetized cynomolgus monkey brain thalamus after 1.5 mins postinjection; assay type: ADME, organism-based, Macaca fascicularis; conditions: in vivo, 0.025 h
[23] = test system: Medulla; experiment: Drug uptake in anesthetized cynomolgus monkey brain medulla after 85 mins postinjection; assay type: ADME, organism-based, Macaca fascicularis; conditions: in vivo
[24] = test system: Midbrain; experiment: Drug uptake in anesthetized cynomolgus monkey brain midbrain after 115 mins postinjection; assay type: ADME, organism-based, Macaca fascicularis; set-up: unit not given here; conditions: in vivo
[25] = test system: Putamen; experiment: Drug uptake in anesthetized cynomolgus monkey brain putamen after 95 mins postinjection; assay type: ADME, organism-based, Macaca fascicularis; set-up: unit not given here; conditions: in vivo
[26] = Drug uptake in anesthetized cynomolgus monkey brain frontal lobe after 65 mins postinjection; assay type: ADME, organism-based, Macaca fascicularis; conditions: in vivo
[27] = test system: Caudate; experiment: Drug uptake in anesthetized cynomolgus monkey brain caudate after 75 mins postinjection; assay type: ADME, organism-based, Macaca fascicularis, Caudate nucleus; conditions: in vivo, 1.25 h
[28] = Drug uptake in anesthetized cynomolgus monkey brain occipital lobe after 115 mins postinjection; assay type: ADME, organism-based, Macaca fascicularis; conditions: in vivo
[29] = Drug uptake in anesthetized cynomolgus monkey brain frontal lobe after 125 mins postinjection; assay type: ADME, organism-based, Macaca fascicularis; conditions: in vivo
[30] = Drug uptake in anesthetized cynomolgus monkey brain frontal lobe after 9.5 mins postinjection; assay type: ADME, organism-based, Macaca fascicularis; conditions: in vivo
[31] = Drug uptake in anesthetized cynomolgus monkey brain occipital lobe after 1.5 mins postinjection; assay type: ADME, organism-based, Macaca fascicularis; conditions: in vivo, 0.025 h
[32] = test system: Caudate; experiment: Drug uptake in anesthetized cynomolgus monkey brain caudate after 9.5 mins postinjection; assay type: ADME, organism-based, Macaca fascicularis, Caudate nucleus; conditions: in vivo
[33] = Ratio of drug uptake in putamen to cerebellum in anesthetized cynomolgus monkey after 0.5 mins postinjection; assay type: ADME, organism-based, Macaca fascicularis; conditions: in vivo
[34] = Ratio of drug uptake in thalamus to cerebellum in anesthetized cynomolgus monkey after 95 mins postinjection; assay type: ADME, organism-based, Macaca fascicularis; conditions: in vivo
[35] = test system: Putamen; experiment: Drug uptake in anesthetized cynomolgus monkey brain putamen after 1.5 mins postinjection; assay type: ADME, organism-based, Macaca fascicularis; conditions: in vivo, 0.025 h
[36] = test system: Caudate; experiment: Drug uptake in anesthetized cynomolgus monkey brain caudate after 2.5 mins postinjection; assay type: ADME, organism-based, Macaca fascicularis, Caudate nucleus; conditions: in vivo
[37] = Drug uptake in anesthetized cynomolgus monkey brain frontal lobe after 85 mins postinjection; assay type: ADME, organism-based, Macaca fascicularis; conditions: in vivo
[38] = Ratio of drug uptake in medulla to cerebellum in anesthetized cynomolgus monkey after 18.5 mins postinjection; assay type: ADME, organism-based, Macaca fascicularis; conditions: in vivo
[39] = Ratio of drug uptake in pons to cerebellum in anesthetized cynomolgus monkey after 225 mins postinjection; assay type: ADME, organism-based, Macaca fascicularis; conditions: in vivo, 3.75 h
[40] = Ratio of drug uptake in medulla to cerebellum in anesthetized cynomolgus monkey after 9.5 mins postinjection; assay type: ADME, organism-based, Macaca fascicularis; conditions: in vivo
[41] = test system: Pons; experiment: Drug uptake in anesthetized cynomolgus monkey brain pons after 22.5 mins postinjection; assay type: ADME, organism-based, Macaca fascicularis; conditions: in vivo, 0.375 h
[42] = Drug uptake in anesthetized cynomolgus monkey brain frontal lobe after 165 mins postinjection; assay type: ADME, organism-based, Macaca fascicularis; conditions: in vivo, 2.75 h
[43] = test system: Pons; experiment: Drug uptake in anesthetized cynomolgus monkey brain pons after 4.5 mins postinjection; assay type: ADME, organism-based, Macaca fascicularis; conditions: in vivo, 0.075 h
[44] = Drug uptake in anesthetized cynomolgus monkey brain cerebellum after 115 mins postinjection; assay type: ADME, organism-based, Macaca fascicularis; conditions: in vivo
[45] = Drug uptake in anesthetized cynomolgus monkey brain cerebellum after 9.5 mins postinjection; assay type: ADME, organism-based, Macaca fascicularis; conditions: in vivo
[46] = test system: Medulla; experiment: Drug uptake in anesthetized cynomolgus monkey brain medulla after 175 mins postinjection; assay type: ADME, organism-based, Macaca fascicularis; conditions: in vivo
[47] = Drug uptake in anesthetized cynomolgus monkey brain frontal lobe after 12.5 mins postinjection; assay type: ADME, organism-based, Macaca fascicularis; conditions: in vivo
[48] = Drug uptake in anesthetized cynomolgus monkey brain occipital lobe after 9.5 mins postinjection; assay type: ADME, organism-based, Macaca fascicularis; conditions: in vivo
[49] = test system: Caudate; experiment: Drug uptake in anesthetized cynomolgus monkey brain caudate after 235 mins postinjection; assay type: ADME, organism-based, Macaca fascicularis, Caudate nucleus; conditions: in vivo
[50] = test system: Medulla; experiment: Drug uptake in anesthetized cynomolgus monkey brain medulla after 35 mins postinjection; assay type: ADME, organism-based, Macaca fascicularis; conditions: in vivo
[51] = test system: Pons; experiment: Drug uptake in anesthetized cynomolgus monkey brain pons after 15.5 mins postinjection; assay type: ADME, organism-based, Macaca fascicularis; conditions: in vivo
[52] = Ratio of drug uptake in pons to cerebellum in anesthetized cynomolgus monkey after 145 mins postinjection; assay type: ADME, organism-based, Macaca fascicularis; conditions: in vivo
[53] = test system: Putamen; experiment: Drug uptake in anesthetized cynomolgus monkey brain putamen after 27.5 mins postinjection; assay type: ADME, organism-based, Macaca fascicularis; set-up: unit not given here; conditions: in vivo
[54] = test system: Caudate; experiment: Drug uptake in anesthetized cynomolgus monkey brain caudate after 95 mins postinjection; assay type: ADME, organism-based, Macaca fascicularis, Caudate nucleus; conditions: in vivo
[55] = test system: Thalamus; experiment: Drug uptake in anesthetized cynomolgus monkey brain thalamus after 6.5 mins postinjection; assay type: ADME, organism-based, Macaca fascicularis; set-up: unit not given here; conditions: in vivo
[56] = Ratio of drug uptake in frontal lobe to cerebellum in anesthetized cynomolgus monkey after 145 mins postinjection; assay type: ADME, organism-based, Macaca fascicularis; conditions: in vivo
[57] = test system: Thalamus; experiment: Drug uptake in anesthetized cynomolgus monkey brain thalamus after 115 mins postinjection; assay type: ADME, organism-based, Macaca fascicularis; set-up: unit not given here; conditions: in vivo
[58] = Drug uptake in anesthetized cynomolgus monkey brain frontal lobe after 115 mins postinjection; assay type: ADME, organism-based, Macaca fascicularis; conditions: in vivo
[59] = test system: Medulla; experiment: Drug uptake in anesthetized cynomolgus monkey brain medulla after 45 mins postinjection; assay type: ADME, organism-based, Macaca fascicularis; conditions: in vivo, 0.75 h
[60] = test system: Medulla; experiment: Drug uptake in anesthetized cynomolgus monkey brain medulla after 9.5 mins postinjection; assay type: ADME, organism-based, Macaca fascicularis; conditions: in vivo
[61] = Ratio of drug uptake in frontal lobe to cerebellum in anesthetized cynomolgus monkey after 3.5 mins postinjection; assay type: ADME, organism-based, Macaca fascicularis; conditions: in vivo
[62] = Ratio of drug uptake in frontal lobe to cerebellum in anesthetized cynomolgus monkey after 95 mins postinjection; assay type: ADME, organism-based, Macaca fascicularis; conditions: in vivo
[63] = Ratio of drug uptake in putamen to cerebellum in anesthetized cynomolgus monkey after 65 mins postinjection; assay type: ADME, organism-based, Macaca fascicularis; conditions: in vivo
[64] = test system: Medulla; experiment: Drug uptake in anesthetized cynomolgus monkey brain medulla after 95 mins postinjection; assay type: ADME, organism-based, Macaca fascicularis; conditions: in vivo

O=C(OCCC[18F])C1C2CCC(CC1c1cccc(/C=C\Br)c1)N2 (centres undefined)
Drug uptake [1]: 4.99 | Drug uptake [2]: 3.48 | Drug uptake [3]: 2.54 | Drug uptake [4]: 5.61 | Drug uptake [5]: 4.71 | Drug uptake [6]: 4.03 | Ratio [7]: 0.9 | Drug uptake [8]: 4.94 | Drug uptake [9]: 5.79 | Ratio [10]: 0.7 | Drug uptake [11]: 5.97 | Drug uptake [12]: 5.59 | Drug uptake [13]: 2.89 | Ratio [14]: 1.1 | Drug uptake [15]: 3.21 | Drug uptake [16]: 5.66 | Drug uptake [17]: 5.63 | Drug uptake [18]: 4.72 | Drug uptake [19]: 1.12 | Drug uptake [20]: 5.61 | Drug uptake [21]: 3.83 | Drug uptake [22]: 0.34 | Drug uptake [23]: 5.41 | Drug uptake [24]: 5.52 | Drug uptake [25]: 5.28 | Drug uptake [26]: 3.69 | Drug uptake [27]: 5.17 | Drug uptake [28]: 3.72 | Drug uptake [29]: 2.93 | Drug uptake [30]: 3.19 | Drug uptake [31]: 0.3 | Drug uptake [32]: 3.93 | Ratio [33]: 0.8 | Ratio [34]: 1.4 | Drug uptake [35]: 0.3 | Drug uptake [36]: 0.83 | Drug uptake [37]: 3.32 | Ratio [38]: 1 | Ratio [39]: 1.6 | Ratio [40]: 1 | Drug uptake [41]: 4.89 | Drug uptake [42]: 2.58 | Drug uptake [43]: 2.44 | Drug uptake [44]: 3.29 | Drug uptake [45]: 5.92 | Drug uptake [46]: 4.26 | Drug uptake [47]: 3.5 | Drug uptake [48]: 3.77 | Drug uptake [49]: 3.28 | Drug uptake [50]: 5.92 | Drug uptake [51]: 4.79 | Ratio [52]: 1.6 | Drug uptake [53]: 5.95 | Drug uptake [54]: 5.03 | Drug uptake [55]: 3.71 | Ratio [56]: 1 | Drug uptake [57]: 4.82 | Drug uptake [58]: 3.2 | Drug uptake [59]: 5.8 | Drug uptake [60]: 5.63 | Ratio [61]: 0.5 | Ratio [62]: 0.9 | Ratio [63]: 1.3 | Drug uptake [64]: 5.59
